According to patent EP2365972B1, “MODULATORS OF ATP-BINDING CASSETTE TRANSPORTERS” (Vertex Pharmaceuticals Incorporated, priority 2008, dated 2010):

Biological target: T1, ΔF508-CFTR (Homo sapiens, UniProt P13569, DEL508-508)
T1 construct: expressed in transfected cells
Assay: Membrane potential optical assay for ΔF508-CFTR correction (single-addition HTS format)
Format: cell-based
Conditions: NIH 3T3 cells expressing ΔF508-CFTR, 16-24 hrs with test compound, 10 µM forskolin and genistein (20 µM); for EC50: read-out: Binned EC50; for Emax: NIH3T3, read-out: Binned Max Efficacy
Source text: Membrane potential optical methods for assaying ΔF508-CFTR modulation properties of compounds.
The assay utilizes fluorescent voltage sensing dyes to measure changes in membrane potential using a fluorescent plate reader (e.g., FLIPR III, Molecular Devices, Inc.) as a readout for increase in functional ΔF508-CFTR in NIH 3T3 cells. The driving force for the response is the creation of a chloride ion gradient in conjunction with channel activation by a single liquid addition step after the cells have previously been treated with compounds and subsequently loaded with a voltage sensing dye.
To identify small molecules that correct the trafficking defect associated with ΔF508-CFTR; a single-addition HTS assay format was developed. Assay Plates containing cells are incubated for ∼2-4 hours in tissue culture incubator at 37°C, 5%CO2, 90% humidity. Cells are then ready for compound exposure after adhering to the bottom of the assay plates.
The cells were incubated in serum-free medium for 16-24 hrs in tissue culture incubator at 37°C, 5%CO2, 90% humidity in the presence or absence (negative control) of test compound. The cells were subsequently rinsed 3X with Krebs Ringers solution and loaded with a voltage sensing redistribution dye. To activate ΔF508-CFTR, 10 µM forskolin and the CFTR potentiator, genistein (20 µM), were added along with Cl^--free medium to each well. The addition of Cl^--free medium promoted Cl^- efflux in response to ΔF508-CFTR activation and the resulting membrane depolarization was optically monitored using voltage sensor dyes.
Bath Solution #1: (in mM) NaCl 160, KCl 4.5, CaCl2 2, MgCl2 1, HEPES 10, pH 7.4 with NaOH.
Chloride-free bath solution: Chloride salts in Bath Solution #1 are substituted with gluconate salts.
NIH3T3 mouse fibroblasts stably expressing ΔF508-CFTR are used for optical measurements of membrane potential. The cells are maintained at 37 °C in 5% CO2 and 90 % humidity in Dulbecco's modified Eagle's medium supplemented with 2 mM glutamine, 10 % fetal bovine serum, 1 X NEAA, β-ME, 1 X pen/strep, and 25 mM HEPES in 175 cm^2 culture flasks. For all optical assays, the cells were seeded at […] in 384-well matrigel-coated plates and cultured for 2 hrs at 37 °C before culturing at 27 °C for 24 hrs. for the potentiator assay. For the correction assays, the cells are cultured at 27 °C or 37 °C with and without compounds for 16 - 24 hours.

T1 sequence (P13569 with tags, fused parts or gaps DEL508-508): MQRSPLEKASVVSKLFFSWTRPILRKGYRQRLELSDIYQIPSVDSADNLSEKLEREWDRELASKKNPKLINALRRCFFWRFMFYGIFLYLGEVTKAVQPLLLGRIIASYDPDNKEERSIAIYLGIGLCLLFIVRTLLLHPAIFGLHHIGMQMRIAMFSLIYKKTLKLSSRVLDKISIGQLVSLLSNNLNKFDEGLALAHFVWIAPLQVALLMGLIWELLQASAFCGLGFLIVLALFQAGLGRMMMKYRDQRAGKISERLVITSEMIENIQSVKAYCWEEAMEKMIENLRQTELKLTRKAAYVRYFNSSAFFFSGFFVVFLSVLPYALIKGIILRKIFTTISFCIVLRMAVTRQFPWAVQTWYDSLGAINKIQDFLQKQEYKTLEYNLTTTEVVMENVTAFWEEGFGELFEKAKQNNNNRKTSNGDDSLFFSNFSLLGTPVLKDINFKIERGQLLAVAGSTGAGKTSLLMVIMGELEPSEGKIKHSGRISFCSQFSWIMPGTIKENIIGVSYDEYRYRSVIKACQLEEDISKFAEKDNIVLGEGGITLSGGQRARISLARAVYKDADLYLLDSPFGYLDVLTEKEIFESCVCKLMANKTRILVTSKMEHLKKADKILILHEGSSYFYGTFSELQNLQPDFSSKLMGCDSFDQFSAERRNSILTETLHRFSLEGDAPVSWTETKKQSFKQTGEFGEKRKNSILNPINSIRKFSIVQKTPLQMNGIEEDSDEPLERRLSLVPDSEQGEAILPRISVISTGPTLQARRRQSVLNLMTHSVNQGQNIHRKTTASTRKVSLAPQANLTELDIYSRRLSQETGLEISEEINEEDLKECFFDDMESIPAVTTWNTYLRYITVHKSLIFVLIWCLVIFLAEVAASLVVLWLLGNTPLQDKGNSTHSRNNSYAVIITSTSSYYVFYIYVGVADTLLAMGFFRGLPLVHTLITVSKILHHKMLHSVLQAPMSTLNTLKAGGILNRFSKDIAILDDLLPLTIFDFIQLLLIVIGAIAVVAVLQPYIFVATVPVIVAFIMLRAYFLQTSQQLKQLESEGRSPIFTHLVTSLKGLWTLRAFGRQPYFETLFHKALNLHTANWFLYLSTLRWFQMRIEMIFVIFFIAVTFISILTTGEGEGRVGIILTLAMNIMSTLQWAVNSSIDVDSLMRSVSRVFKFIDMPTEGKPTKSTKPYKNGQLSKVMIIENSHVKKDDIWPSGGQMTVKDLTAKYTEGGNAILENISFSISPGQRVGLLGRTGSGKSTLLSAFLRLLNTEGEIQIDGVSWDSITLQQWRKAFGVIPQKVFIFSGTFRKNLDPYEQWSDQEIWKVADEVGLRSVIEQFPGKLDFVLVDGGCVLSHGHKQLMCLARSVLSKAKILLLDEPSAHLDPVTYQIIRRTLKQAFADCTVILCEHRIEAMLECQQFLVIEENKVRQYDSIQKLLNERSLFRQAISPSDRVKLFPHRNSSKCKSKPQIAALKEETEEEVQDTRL

EC50	Emax	Compound	Binned Max Efficacy
< 2 µM	> 100%	CC(C)(CCO)c1cc2cc(NC(=O)C3(c4ccc5c(c4)OC(F)(F)O5)CC3)c(F)cc2n1C[C@@H](O)CO [Compound 311, (R)-1-(2,2-difluorobenzo[d][1,3]dioxol-5-yl)-N-(1-(2,3-dihydroxypropyl)-6-fluoro-2-(4-hydroxy-2-methylbutan-2-yl)-1H-indol-5-yl)cyclopropanecarboxamide]	–
< 2 µM	> 100%	CC(C)(C)c1cc2cc(NC(=O)C3(c4ccc5c(c4)OCO5)CC3)c(F)cc2n1CC(O)CO (stereo not drawn) [Compound 318]	–
< 2 µM	> 100%	CC(C)(C)c1cc2c(C#N)c(NC(=O)C3(c4ccc5c(c4)OC(F)(F)O5)CC3)ccc2n1CCO [Compound 315, N-(2-tert-butyl-4-cyano-1-(2-hydroxyethyl)-1H-indol-5-yl)-1-(2,2-difluorobenzo[d][1,3]dioxol-5-yl)cyclopropanecarboxamide]	–

More lines, now with the values behind:

Compound	EC50	Emax	Binned Max Efficacy
2-(2-tert-butyl-5-(1-(2,2-difluorobenzo[d][1,3]dioxol-5-yl)cyclopropanecarboxamido)-6-fluoro-1H-indol-1-yl)-N,N,N-trimethylethanaminium chloride [Compound 308]	2 to 5 µM	–	+++ ("+++" means > 100%)
CC(C)(CCOC[C@@H](O)CO)c1cc2cc(NC(=O)C3(c4ccc5c(c4)OC(F)(F)O5)CC3)c(F)cc2n1C[C@@H](O)CO [Compound 310, 1-(2,2-difluorobenzo[d][1,3]dioxol-5-yl)-N-(2-(4-((S)-2,3-dihydroxypropoxy)-2-methylbutan-2-yl)-1-((R)-2,3-dihydroxypropyl)-6-fluoro-1H-indol-5-yl)cyclopropanecarboxamide]	< 2 µM	> 100%	–
CC(C)(CCOC[C@@H](O)CO)c1cc2cc(NC(=O)C3(c4ccc5c(c4)OC(F)(F)O5)CC3)c(F)cc2[nH]1 [Compound 309, (S)-1-(2,2-difluorobenzo[d][1,3]dioxol-5-yl)-N-(2-(4-(2,3-dihydroxypropoxy)-2-methylbutan-2-yl)-6-fluoro-1H-indol-5-yl)cyclopropanecarboxamide]	< 2 µM	> 100%	–
